Publication PMC11013252, “Exploration of the Antibacterial and Anti-Inflammatory Activity of a Novel Antimicrobial Peptide Brevinin-1BW” (Molecules, 2024)
Values after ≈ are worked out from the molar mass of the structure shown. Positions of bridges follow the written chain, without caps; N, C: chain ends. Residues, ends and D or L forms follow the SMILES beside them.

Columns and labels:
S. aureus (ATCC25923) = test: microbe, parasite or virus in culture; assay type: cell-based, Staphylococcus aureus
Protocol: (§1) The minimum inhibitory concentration (MIC) of the Brevinin-1BW was measured in 96-well microtiter plates according to the Clinical and Laboratory Standards Institute (CLSI). The activated strains were treated with Mueller Hinton Agar (MHA) solid medium. Single colonies were picked and expanded to the logarithmic growth phase, and the solution was diluted to 2 × 10^6 CFU/mL using the McFarland turbidity standard. The MIC was determined with the two-fold dilution method. Briefly, 50 μL of Mueller Hinton (MH) medium was added to a 96-well plate in advance. Then, 50 μL of AMP solution was added to the first well, and 50 μL was pipetted into the next well after mixing using a row gun, while 50 μL was discarded from the last well. Final concentrations of Brevinin-1BW were 100, 50, 25, 12.5, 6.25, and 3.125 μg/mL. A 50 μL volume of the diluted bacterial solution was added, and the final concentration of the bacterial solution was 1 × 10^6 CFU/mL. This was then placed into a 37 °C incubator for 18 h until the next day to observe the degree of turbidity of the 96-well plate and measure the absorbance of the wells at 600 nm with a multifunctional microplate reader (SpectraMax iD5, Molecular Devices, Sunnyvale, CA, USA). The absence of turbidity and the measured concentration of absorbance being less than the opposing group was taken as the MIC. The positive control used ampicillin at the same final concentration as Brevinin-1BW, the negative control used 50 μL of MH medium mixed with 50 μL of 2 × 10^6 CFU/mL bacterial solution, and the blank contained only 100 μL of MH medium. Three replicate wells were set up for each experiment, and each experiment was repeated three times. The MIC and all concentrations above the MIC of bacterial solution coated on MHA solid medium were placed into 37 °C incubator incubation for 18 h. The lowest concentration resulting in no colony growth was taken as the minimum bactericidal concentration (MBC).

[1] = tested on: S. aureus (MDR ATCC29213); test: microbe, parasite or virus in culture; assay type: cell-based, Staphylococcus aureus; settings: ATCC29213, 18 h
Protocol: as §1

[2] = tested on: S. saprophytics (ATCCBAA750); test: microbe, parasite or virus in culture; assay type: cell-based, Staphylococcus saprophyticus; settings: ATCCBAA750, 18 h
Protocol: as §1

[3] = tested on: E. hormaechei (ATCC700323); test: microbe, parasite or virus in culture; assay type: cell-based, Enterobacter hormaechei; settings: ATCC700323, 18 h
Protocol: as §1

E. coli (MDR ATCC35218) = test: microbe, parasite or virus in culture; assay type: cell-based, Escherichia coli; settings: ATCC35218, 18 h
Protocol: as §1

ABTS radical scavenging = settings: at 200 μg/mL, room temperature, 6 min, absorbance 734 nm
Protocol: ABTS^+ scavenging capacity: A 7 mM ABTS (Med Chem Express, NJ, USA) solution and 140 mM potassium persulfate (Aladdin, Shanghai, China) solution were prepared. A 5 mL volume of ABTS was taken and mixed with 88 μL of potassium persulfate before being placed in the dark at room temperature for 14 h to form the ABTS radical stock solution. The ABTS radical stock solution was then diluted with 95% ethanol by volume to reach an OD734 nm = 0.7. Then, 10 μL of Brevinin-1BW solution was mixed with 50 μL of ABTS radical stock solution, and the resulting absorbance was measured at 734 nm for 6 min at room temperature, which was recorded as A1. The absorbance of 95% ethanol was measured as A2. The same concentration of vitamin C was used as the positive control. The clearance was calculated according to the following equation: ABTS^+ Clearance Rate%=(A2−A1)/A2×100

[4] = LPS-binding assay, checkerboard with S. aureus; assay type: cell-based; settings: LPS higher than 5 μg/mL, 37 °C, 18 h, OD600
Protocol: The lipopolysaccharide-binding assay was performed using the checkerboard method. Dissolve and prepare LPS (Solarbio, Beijing, China) and Brevinin-1BW with Muller Hinton (MH), add LPS with a final concentration of 0–160 μg/mL along the X-axis, and add 100–0 μg/mL Brevinin-1BW along the Y-axis. Then, an additional 10^5 CFU of S. aureus was added to bring the final volume to 200 μL. It was incubated at 37 °C for 18 h, measure the OD 600 value, and the MIC value at different LPS concentrations was recorded. The experiment was repeated three times.

IL-1β = test: Cytokine release in LPS-treated RAW264.7 cells, ELISA; assay type: cell-based, mouse; settings: 4 μg/mL peptide, 1 μg/mL LPS, RAW264.7, 24 h, ELISA of supernatant
Protocol: (§2) RAW 264.7 mouse macrophages were cultured in DMEM medium (Gibco, New York, NY, USA). containing 10% FBS (TransGen Biotech, Beijing, China) and 1% penicillin-streptomycin (Biosharp, Guangzhou, China) and were seeded into 6-well plates at a cell density of 10^5 cells/mL. After cell adhesion, 1 μg/mL LPS (Solarbio, Beijing, China) and different concentrations of Brevinin-1BW (0, 1, 2, 3, and 4 μg/mL) were incubated for 24 h. Culture supernatants were collected, and the contents of TNFα, IL-6, and IL-1β were determined with enzyme-linked immunosorbent assay (BOSTER, Wuhan, China). All cells were washed twice with precooled PBS, total cellular RNA was extracted using the RNAsimple Total RNA Extraction kit (TIANGEN, Beijing, China), and total RNA concentration and purity were determined using a Thermo Fisher NanoDropOne nucleic acid protein spectrophotometer. HiScript II 1st Strand cDNA Synthesis Kit (Vazyme, Nanjing, China) synthesized cDNA, and we performed real-time PCR using Hieff® qPCR SYBR Green Master Mix (No Rox) (YEASEN, Shanghai, China). The primer sequences for Beta-actin (β-Actin), interleukins (IL-6, IL-1β), tumor necrosis factor (TNF-α), and nitric oxide synthase (iNOS) are shown in Table 6. Cells incubated without peptide and/or LPS were used as negative control. All experiments were repeated three times.

IL-6 = test: as above; assay type: cell-based, mouse
Protocol: as §2

TNF-α = test: as above; assay type: cell-based, mouse
Protocol: as §2

IL-1β mRNA = test: mRNA expression in LPS-treated RAW264.7 cells, real-time PCR; assay type: cell-based, mouse
Protocol: as §2

IL-6 mRNA = test: as above; assay type: cell-based, mouse
Protocol: as §2

TNF-α mRNA = test: as above; assay type: cell-based, mouse
Protocol: as §2

iNOS mRNA = test: as above; assay type: cell-based, mouse
Protocol: as §2

CC[C@H](C)[C@@H]1NC(=O)[C@H](CCCCN)NC(=O)[C@@H](NC(=O)[C@H](Cc2ccccc2)NC(=O)[C@@H](NC(=O)[C@@H](NC(=O)[C@@H]2CCCN2C(=O)[C@H](CC(C)C)NC(=O)[C@H](Cc2ccccc2)NC(=O)[C@H](CO)NC(=O)[C@H](C)NC(=O)[C@H](C)NC(=O)[C@H](CC(C)C)NC(=O)CNC(=O)[C@H](C)NC(=O)[C@H](CC(C)C)NC(=O)[C@H](CC(C)C)NC(=O)[C@@H]2CCCN2C(=O)[C@H](CC(C)C)NC(=O)[C@@H](N)Cc2ccccc2)[C@@H](C)O)[C@@H](C)CC)CSSC[C@@H](C(=O)O)NC(=O)[C@H](CCCCN)NC(=O)[C@H](CCCNC(=N)N)NC(=O)[C@H](CO)NC1=O [Brevinin-1BW] (H-FLPLLAGLAASFLPTIFCKISRKC-OH; disulfide 18-24)
MBC (S. aureus (ATCC25923); ATCC25923, 18 h): 6.25 µg/mL (≈ 2.4 µM)
MIC (S. aureus (ATCC25923); ATCC25923, 18 h): 6.25 µg/mL (≈ 2.4 µM)
reduction of viability (S. aureus (ATCC25923); S. aureus, at 6.25 μg/mL): 99.9%
MBC [1]: 25 µg/mL (≈ 9.58 µM)
MIC [1]: 6.25 µg/mL (≈ 2.4 µM)
MBC [2]: 12.5 µg/mL (≈ 4.79 µM)
MIC [2]: 6.25 µg/mL (≈ 2.4 µM)
MBC [3]: >100 µg/mL
MIC [3]: 100 µg/mL (≈ 38.3 µM)
MBC (E. coli (MDR ATCC35218)): >100 µg/mL
MIC (E. coli (MDR ATCC35218)): >100 µg/mL
ABTS radical scavenging (ABTS radical scavenging): less than 20%
antibacterial activity against S. aureus in the presence of LPS [4]: gradually decreased
decrease of IL-1β release (IL-1β): 91.46%
decrease of IL-6 release (IL-6): 77.82%
decrease of TNF-α release (TNF-α): 87.31%
decrease of IL-1β mRNA expression level (IL-1β mRNA): 95.5%
decrease of IL-6 mRNA expression level (IL-6 mRNA): 93.72%
decrease of TNF-α mRNA expression level (TNF-α mRNA): 86.94%
decrease of iNOS mRNA expression level (iNOS mRNA): 81.37%
